Experimental data from patent publication US12662498B2 (priority 2017, dated 2026).

Assay: ICH stability study of psilocybin batches (appearance, water content, purity, assay)

Compound: CN(C)CCc1c[nH]c2cccc(OP(=O)(O)O)c12 [Batch 170231]
- Impurities by HPLC: RRT 1.62 (Psilocin) (T = 6 months, 2-8° C.): 0.35%
- Impurities by HPLC: RRT 1.70 (T = 6 months, 2-8° C.): LT 0.05%
- Impurities by HPLC: line without printed RRT (after RRT0.69) (T = 6 months, 2-8° C.): 0.07%
- Impurity at RRT 1.89 (T = 6 months, 2-8° C.): LT 0.05%
- Impurity at RRT 2.45 (T = 6 months, 2-8° C.): LT 0.05%
- Total Impurities (T = 6 months, 2-8° C.): 0.80%
- Water content by loss on drying (T = 6 months, 2-8° C.): 0.06% ^w/w % w/w
- Appearance (T = 6 months, 25° C./60% RH): An off white solid.
- Assay by HPLC (on a dry basis) (T = 6 months, 25° C./60% RH): 98.04% ^w/w % w/w
- Chemical Purity By HPLC (T = 6 months, 25° C./60% RH): 99.19%
- Impurities LT 0.05% (T = 6 months, 25° C./60% RH): 0.34%
- Impurities by HPLC: RRT0.69 (T = 6 months, 25° C./60% RH): 0.06%
- Impurities by HPLC: RRT 1.49 (T = 6 months, 25° C./60% RH): LT 0.05%
- Impurities by HPLC: RRT 1.62 (Psilocin) (T = 6 months, 25° C./60% RH): 0.34%
- Impurities by HPLC: RRT 1.70 (T = 6 months, 25° C./60% RH): LT 0.05%
- Impurities by HPLC: line without printed RRT (after RRT0.69) (T = 6 months, 25° C./60% RH): 0.07%
- Impurity at RRT 1.89 (T = 6 months, 25° C./60% RH): LT 0.05%
- Impurity at RRT 2.45 (T = 6 months, 25° C./60% RH): LT 0.05%
- Total Impurities (T = 6 months, 25° C./60% RH): 0.81%
- Water content by loss on drying (T = 6 months, 25° C./60% RH): 0.32% ^w/w % w/w
- Appearance (T = 6 months, 40° C./75% RH): An off white solid.
- Assay by HPLC (on a dry basis) (T = 6 months, 40° C./75% RH): 100.10% ^w/w % w/w
- Chemical Purity By HPLC (T = 6 months, 40° C./75% RH): 99.12%
- Impurities LT 0.05% (T = 6 months, 40° C./75% RH): 0.36%
- Impurities by HPLC: RRT0.69 (T = 6 months, 40° C./75% RH): 0.06%
- Impurities by HPLC: RRT 1.49 (T = 6 months, 40° C./75% RH): LT 0.05%
- Impurities by HPLC: RRT 1.62 (Psilocin) (T = 6 months, 40° C./75% RH): 0.38%
- Impurities by HPLC: RRT 1.70 (T = 6 months, 40° C./75% RH): LT 0.05%
- Impurities by HPLC: line without printed RRT (after RRT0.69) (T = 6 months, 40° C./75% RH): 0.08%
- Impurity at RRT 1.89 (T = 6 months, 40° C./75% RH): LT 0.05%
- Impurity at RRT 2.45 (T = 6 months, 40° C./75% RH): LT 0.05%
- Total Impurities (T = 6 months, 40° C./75% RH): 0.88%
- Water content by loss on drying (T = 6 months, 40° C./75% RH): 2.26% ^w/w % w/w
- Appearance (T = 9 months, 2-8° C.): An off white solid.
- Assay by HPLC (on a dry basis) (T = 9 months, 2-8° C.): 97.53% ^w/w % w/w
- Chemical Purity By HPLC (T = 9 months, 2-8° C.): 99.16%
- Impurities by HPLC: RRT0.69 (T = 9 months, 2-8° C.): LT 0.05%
- Impurities by HPLC: RRT 1.49 (T = 9 months, 2-8° C.): 0.07%
- Impurities by HPLC: RRT 1.62 (Psilocin) (T = 9 months, 2-8° C.): 0.06%
- Impurities by HPLC: RRT 1.70 (T = 9 months, 2-8° C.): 0.37%
- Impurities by HPLC: line without printed RRT (after RRT0.69) (T = 9 months, 2-8° C.): LT 0.05%
- Impurity at RRT 1.89 (T = 9 months, 2-8° C.): LT 0.05%
- Impurity at RRT 2.45 (T = 9 months, 2-8° C.): LT 0.05%
- Total Impurities (T = 9 months, 2-8° C.): 0.84%
- Water content by loss on drying (T = 9 months, 2-8° C.): 0.21% ^w/w % w/w
- Appearance (T = 9 months, 25° C./60% RH): An off white solid.
- Assay by HPLC (on a dry basis) (T = 9 months, 25° C./60% RH): 98.12% ^w/w % w/w
- Chemical Purity By HPLC (T = 9 months, 25° C./60% RH): 99.16%
- Impurities by HPLC: RRT0.69 (T = 9 months, 25° C./60% RH): LT 0.05%
- Impurities by HPLC: RRT 1.49 (T = 9 months, 25° C./60% RH): 0.05%
- Impurities by HPLC: RRT 1.62 (Psilocin) (T = 9 months, 25° C./60% RH): 0.06%
- Impurities by HPLC: RRT 1.70 (T = 9 months, 25° C./60% RH): 0.37%
- Impurities by HPLC: line without printed RRT (after RRT0.69) (T = 9 months, 25° C./60% RH): LT 0.05%
- Impurity at RRT 1.89 (T = 9 months, 25° C./60% RH): LT 0.05%
- Impurity at RRT 2.45 (T = 9 months, 25° C./60% RH): LT 0.05%
- Total Impurities (T = 9 months, 25° C./60% RH): 0.84%
- Water content by loss on drying (T = 9 months, 25° C./60% RH): 0.10% ^w/w % w/w
- Appearance (T = 12 months, 2-8° C.): An off white solid.
- Assay by HPLC (on a dry basis) (T = 12 months, 2-8° C.): 99.63% ^w/w % w/w
- Chemical Purity By HPLC (T = 12 months, 2-8° C.): 99.25%
- Impurities LT 0.05% (T = 12 months, 2-8° C.): 0.38%
- Impurities by HPLC: RRT0.69 (T = 12 months, 2-8° C.): LT 0.05%
- Impurities by HPLC: RRT 1.49 (T = 12 months, 2-8° C.): LT 0.05%
- Impurities by HPLC: RRT 1.62 (Psilocin) (T = 12 months, 2-8° C.): 0.37%
- Impurities by HPLC: RRT 1.70 (T = 12 months, 2-8° C.): LT 0.05%
- Impurity at RRT 1.89 (T = 12 months, 2-8° C.): LT 0.05%
- Impurity at RRT 2.45 (T = 12 months, 2-8° C.): LT 0.05%
- Total Impurities (T = 12 months, 2-8° C.): 0.75%
- Water content by loss on drying (T = 12 months, 2-8° C.): 0.49% ^w/w % w/w
- Appearance (T = 12 months, 25° C./60% RH): An off white solid.
- Assay by HPLC (on a dry basis) (T = 12 months, 25° C./60% RH): 98.97% ^w/w % w/w
- Chemical Purity By HPLC (T = 12 months, 25° C./60% RH): 99.25%
- Impurities LT 0.05% (T = 12 months, 25° C./60% RH): 0.38%
- Impurities by HPLC: RRT0.69 (T = 12 months, 25° C./60% RH): LT 0.05%
- Impurities by HPLC: RRT 1.49 (T = 12 months, 25° C./60% RH): LT 0.05%
- Impurities by HPLC: RRT 1.62 (Psilocin) (T = 12 months, 25° C./60% RH): 0.37%
- Impurities by HPLC: RRT 1.70 (T = 12 months, 25° C./60% RH): LT 0.05%
- Impurity at RRT 2.45 (T = 12 months, 25° C./60% RH): LT 0.05%
- Total Impurities (T = 12 months, 25° C./60% RH): 0.75%
- Water content by loss on drying (T = 12 months, 25° C./60% RH): 0.61% ^w/w % w/w
